The Deep4Chem optical property database
Each block holds one compound with its values, some of them ahead of it.

Experiment: solvent given as SMILES

SMILES: Cn1ccc(=O)n(C)c1=O
fluorescence lifetime (in CC#N): 0.0001 ns

SMILES: COCc1ncc(-c2c3ccccc3c(-c3cnc(COC)nc3)c3ccccc23)cn1
fluorescence lifetime (in CCO): 6.1 ns | fluorescence lifetime (in ClCCl): 6.5 ns

SMILES: O=C1c2ccccc2-c2ccccc21
fluorescence lifetime (in C1CCCCC1): 0.4 ns | fluorescence lifetime (in CC#N): 17.8 ns | fluorescence lifetime (in CCO): 1.9 ns | fluorescence lifetime (in c1ccccc1): 2.8 ns

SMILES: Cc1cc(C2=C(c3c(C)sc(-c4ccc(-c5nc(-c6ccccc6)c(-c6ccccc6)[nH]5)cc4)c3C)C(F)(F)C(F)(F)C2(F)F)c(C)s1
fluorescence lifetime (in C1CCOC1): 0.54 ns

SMILES: CC1(C)c2ccccc2N(c2ccc(-c3ccc4c(c3)c3cc(-c5ccc(N6c7ccccc7C(C)(C)c7ccccc76)cc5)ccc3c3nc(C#N)c(C#N)nc43)cc2)c2ccccc21
fluorescence lifetime (in O=P(c1ccccc1)(c1ccccc1)c1cccc(-c2cc(-n3c4ccccc4c4ccccc43)cc(-n3c4ccccc4c4ccccc43)c2)n1): 53.6 ns

SMILES: Cc1ccccc1
fluorescence lifetime (in C1CCCCC1): 50 ns

SMILES: COc1ccc(-c2cc3c(s2)c(C(C)=O)cc(=O)n3Cc2ccccc2)cc1
fluorescence lifetime (in ClCCl): 1.94 ns

SMILES: C[Si]1(C)c2cc(-c3ccccc3)ccc2C=Cc2ccc(-c3ccccc3)cc21
fluorescence lifetime (in ClCCl): 1.6 ns

SMILES: Cc1cc(-c2ccc(-n3c4ccccc4c4ccccc43)cc2)nc(-c2ccc(-n3c4ccccc4c4ccccc43)cc2)n1
fluorescence lifetime (in C1CCOC1): 4.26 ns | fluorescence lifetime (in CN(C)C=O): 7.57 ns | fluorescence lifetime (in Cc1ccccc1): 2.44 ns | fluorescence lifetime (in ClC(Cl)Cl): 4.11 ns

SMILES: CCCCC(CC)COc1ccc2nc(-c3ccc(-c4ccccc4)s3)sc2c1 (configuration not stated)
fluorescence lifetime (in ClCCl): 1.14 ns

SMILES: c1ccc(-c2nc(-c3ccc(-c4nc(-c5ccccc5)c(-c5ccccc5)o4)cc3)oc2-c2ccccc2)cc1
fluorescence lifetime (in C1COCCO1): 1.03 ns

SMILES: c1cc2ccc3ccc4cc3c2cc1CCCCCCc1ccc2ccc3ccc-4cc3c2c1
fluorescence lifetime (in Cc1ccccc1): 8.7 ns

SMILES: CCCCC(CC)CN1C(=O)C2=C(c3ccc(-c4ccc(C5=C6C(C)=CC(C)=[N+]6[B-](F)(F)n6c(C)cc(C)c65)cc4)s3)N(CC(CC)CCCC)C(=O)C2=C1c1cccs1 (configuration not stated)
fluorescence lifetime (in Cc1ccccc1): 3.87 ns

SMILES: c1ccc(-c2nc(-c3ccccc3)nc(-c3cc(-n4c5ccccc5c5ccccc54)c(-n4c5ccccc5c5ccccc54)c(-n4c5ccccc5c5ccccc54)c3)n2)cc1
fluorescence lifetime (in O=P(c1ccccc1)(c1ccccc1)c1ccc2oc3ccc(P(=O)(c4ccccc4)c4ccccc4)cc3c2c1): 13.1 ns

SMILES: COC(=O)C(Cc1ccc2oc(-c3ccc(-n4c5ccccc5c5ccccc54)cc3)nc2c1)NC(=O)OC(C)(C)C (configuration not stated)
fluorescence lifetime (in C1CCCCC1): 1.37 ns | fluorescence lifetime (in C1CCOC1): 3.32 ns | fluorescence lifetime (in C1COCCO1): 2.49 ns | fluorescence lifetime (in CC1CCCO1): 2.78 ns | fluorescence lifetime (in CC#N): 5.02 ns | fluorescence lifetime (in CC(C)(C)O): 4.03 ns | fluorescence lifetime (in CC(C)=O): 4.28 ns | fluorescence lifetime (in CC(C)CC(C)(C)C): 1.3 ns | fluorescence lifetime (in CC(C)O): 4.49 ns | fluorescence lifetime (in CC(O)CO): 5.74 ns | fluorescence lifetime (in CCCCCCCO): 4 ns | fluorescence lifetime (in CCCCCCO): 4.11 ns | fluorescence lifetime (in CCCCCO): 3.36 ns | fluorescence lifetime (in CCCCO): 4.52 ns | fluorescence lifetime (in CCO): 5.3 ns | fluorescence lifetime (in CCOC(C)=O): 3.08 ns | fluorescence lifetime (in CCOCC): 2.8 ns | fluorescence lifetime (in CN(C)C=O): 4.97 ns | fluorescence lifetime (in CO): 5.34 ns | fluorescence lifetime (in CS(C)=O): 5.45 ns | fluorescence lifetime (in Cc1ccccc1): 1.84 ns | fluorescence lifetime (in OCCO): 6.17 ns

SMILES: CC[n+]1nc2cc3c(cc2c2cc(C)ccc21)N(C)CCC3
fluorescence lifetime (in O): 4.3 ns

SMILES: CSC1=C2C=C(c3cc4n(c3)[B-](F)(F)[N+]3=CC=CC3=C4c3c(C)cc(C)cc3C)C(C)=[N+]2[B-](F)(F)n2c(C)ccc21
fluorescence lifetime (in C1CCCCC1): 2.67 ns | fluorescence lifetime (in CC#N): 0.17 ns | fluorescence lifetime (in CC(C)=O): 0.39 ns | fluorescence lifetime (in CCOC(C)=O): 0.97 ns | fluorescence lifetime (in Cc1ccccc1): 1.81 ns

SMILES: Cc1cc(C)c(C2=C3C=CC=[N+]3[B-]3(c4ccccc4)Oc4cc(O)cc5c6ccc(C)cc6c6cc2n3c6c45)c(C)c1 (configuration not stated)
fluorescence lifetime (in ClC(Cl)Cl): 3 ns

SMILES: CC1(C)c2ccccc2N(c2ccc(-c3nc(-c4ccccc4)cc(-c4ccccc4)n3)cc2)c2ccccc21
fluorescence lifetime (in Cc1ccccc1): 6.48 ns | fluorescence lifetime (in ClCCl): 18.2 ns

SMILES: N#Cc1ccc(C2=Cc3ccccc3P2(=O)c2ccccc2)cc1 (configuration not stated)
fluorescence lifetime (in ClCCl): 4.8 ns

Now from value to compound:

fluorescence lifetime (in C1CCOC1): 0.33 ns | fluorescence lifetime (in CC#N): 0.41 ns | fluorescence lifetime (in CCO): 0.28 ns | fluorescence lifetime (in CN(C)C=O): 0.19 ns | fluorescence lifetime (in CO): 0.22 ns | fluorescence lifetime (in CS(C)=O): 0.13 ns
SMILES: CSc1sc(C(=O)c2ccccc2)c2nn[nH]c(=O)c12

fluorescence lifetime (in ClCCl): 6.41 ns
SMILES: CCc1c(C)c2n(c1C)[B-](F)(F)[N+]1=C(c3ccc[nH]3)c3ccccc3C1=C2

fluorescence lifetime (in C1CCCCC1): 2.7 ns | fluorescence lifetime (in CCOC(C)=O): 0.911 ns
SMILES: CC1=[N+]2C(=C(Oc3ccc4c(c3)CC[C@@H]3[C@@H]4CC[C@]4(C)C(=O)CC[C@@H]34)c3ccc(C)n3[B-]2(F)F)C=C1c1cc2n(c1)[B-](F)(F)[N+]1=CC=CC1=C2c1c(C)cc(C)cc1C

fluorescence lifetime (in C1CCOC1): 1.37 ns
SMILES: COc1ccc(C2=C(c3ccc(OC)cc3)[Si](c3ccccc3)(c3ccccc3)c3ccccc32)cc1

fluorescence lifetime (in CC#N): 0.0001 ns
SMILES: O=c1cc[nH]c(=O)[nH]1

fluorescence lifetime (in CC#N): 1.16 ns | fluorescence lifetime (in CO): 1.15 ns | fluorescence lifetime (in O): 1.17 ns
SMILES: CSc1ccc2c(c1)N(CCCN(C)C)c1ccccc1S2

fluorescence lifetime (in ClCCl): 11.5 ns
SMILES: Cc1cc(C)c(-c2c3ccccc3c3ccc4cc5c(-c6c(C)cc(C)cc6C)c6ccccc6c6ccc7cc2c3c4c7c56)c(C)c1

fluorescence lifetime (in ClC(Cl)Cl): 3.8 ns
SMILES: CCCCN1C(=O)c2ccc3c4ccc5c6c(ccc(c7ccc(c2c37)C1=O)c64)C(=O)N(CCCC)C5=O

fluorescence lifetime (in CN(C)C=O): 5.57 ns
SMILES: C[Si](C)(C)O[Si]1(O[Si](C)(C)C)n2c3c4ccccc4c2/N=C2N=C(/N=c4/c5ccccc5/c(n41)=N/C1=NC(=N\3)/c3ccccc31)c1ccccc1\2

fluorescence lifetime (in ClCCl): 0.47 ns
SMILES: C[Si]1(C)c2ccc(-c3ccc(-c4cccs4)s3)cc2C=Cc2cc(-c3ccc(-c4cccs4)s3)ccc21

fluorescence lifetime (in CC#N): 9.5 ns
SMILES: CCCCCCCCCC[n+]1cc2ccc3c[n+](CCCCCCCCCC)cc4ccc(c1)c2c34

fluorescence lifetime (in CC#N): 0.66 ns
SMILES: Cc1ccc(-c2ccc(/C=C/c3ccc(Br)n3C)cn2)nc1

fluorescence lifetime (in CC#N): 3.5 ns | fluorescence lifetime (in CCO): 3.24 ns | fluorescence lifetime (in O): 3.28 ns
SMILES: CC(=O)OC[C@@H]1O[C@H](n2cnc3c2N=CN2Cc4c[n+](C)c(C)nc4N=C32)[C@@H](O)[C@H]1O

fluorescence lifetime (in CCO): 4.87 ns | fluorescence lifetime (in O): 4.36 ns
SMILES: O=C([O-])c1ccc(C2=c3cc4c5c(c3Oc3c2cc2c6c3CCCN6CCC2)CCC[N+]=5CCC4)c(C(=O)[O-])c1

fluorescence lifetime (in CCCCCC): 60.9 ns | fluorescence lifetime (in CO): 78.6 ns | fluorescence lifetime (in ClCCl): 43.1 ns
SMILES: CC(C)(C)c1ccc2ccc3c(C(C)(C)C)ccc4ccc1c2c43

fluorescence lifetime (in ClCCl): 1.73 ns
SMILES: CCOc1cccc2c1O[B-](F)(F)[n+]1c3c(c4c(c1-2)-c1ccccc1CC4)-c1ccccc1CC3

fluorescence lifetime (in C1COCCO1): 6.06 ns | fluorescence lifetime (in CO): 0.13 ns | fluorescence lifetime (in CS(C)=O): 0.12 ns
SMILES: O=C1/C(=C2\Sc3ccc(S(=O)(=O)Nc4ccccc4)cc3C2=O)Sc2ccc(S(=O)(=O)Nc3ccccc3)cc21

fluorescence lifetime (in CC#N): 0.52 ns
SMILES: c1cc2c3c(cccc3c1)C(N1CCOCCNCCOCCOCC1)=N2

fluorescence lifetime (in ClCCl): 2.59 ns
SMILES: CCCCOc1ccc(-c2cc3c(o2)c(-c2ccc(OCCCC)cc2)c2n3[B-](F)(F)[N+]3=Cc4c(-c5ccc(OCCCC)cc5)c5oc(-c6ccc(OCCCC)cc6)cc5n4[B-](F)(F)[N+]3=C2)cc1

fluorescence lifetime (in CC#N): 101 ns
SMILES: COC(=O)[C@@]12N=N[C@@](C(=O)OC)(C3[C@H]1C3(C)C)[C@H]1[C@@H]2C1(C)C (some centres not stated)

fluorescence lifetime (in ClCCl): 2.67 ns
SMILES: CC(C)(C)c1ccc(-c2c3c(c(-c4ccccc4)c4cc5ccccc5cc24)Cc2c(c(-c4ccccc4)c4cc5ccccc5cc4c2-c2ccc(C(C)(C)C)cc2)C3)cc1

fluorescence lifetime (in c1cc(-c2cccc(-n3c4ccccc4c4ccccc43)c2)cc(-n2c3ccccc3c3ccccc32)c1): 35 ns
SMILES: CC1(C)c2ccccc2N(c2ccc(-c3cc(C#N)c(C#N)cc3-c3ccc(N4c5ccccc5C(C)(C)c5ccccc54)cc3)cc2)c2ccccc21

fluorescence lifetime (in ClCCl): 6.42 ns
SMILES: Cc1cc(C)n2c1C=C1c3ccccc3C(c3c[nH]c4ccccc34)=[N+]1[B-]2(F)F

fluorescence lifetime (in ClC(Cl)Cl): 0.436 ns
SMILES: F[B-]1(F)OC(c2ccc(Br)cc2)=Cc2c3ccccc3c3ccccc3[n+]21
